{"source": "patent US10301304B2", "about": "“Selective inhibitor of phosphatidylinositol 3-kinase-gamma” (VERTEX PHARMACEUTICALS INCORPORATED, priority 2013, dated 2019)", "key": {"MCF7 cells": {"tested_on": "MCF7 cells", "test": "MCF-7 Proliferation Assay", "format": "cell-based, human", "conditions": "for IC50: Homo sapiens", "protocol": "The PI3K-Akt signaling pathway regulates many normal cellular processes including cell proliferation, survival and growth that are critical for tumorigenesis. Dysregulation of the PI3K signaling pathway occurs commonly in human cancers. MCF7 is a human breast carcinoma cell line that has an activating E545K PI3Kα heterozygous mutation in the helical domain of the p110α protein leading to hyperactivity of the PI3K-alpha pathway. […] Compounds are added to MCF7 cells, cell proliferation/viability is measured 96 hours post compound treatment using cell titer-glo to measure the ATP content of the cells in the well. Lack of or reduced proliferation is a measure of the extent of PI3K-alpha inhibition."}, "CYP1A2 [1]": {"biological_target": "CYP1A2 (Homo sapiens, UniProt P05177)", "sequence (P05177 whole entry)": "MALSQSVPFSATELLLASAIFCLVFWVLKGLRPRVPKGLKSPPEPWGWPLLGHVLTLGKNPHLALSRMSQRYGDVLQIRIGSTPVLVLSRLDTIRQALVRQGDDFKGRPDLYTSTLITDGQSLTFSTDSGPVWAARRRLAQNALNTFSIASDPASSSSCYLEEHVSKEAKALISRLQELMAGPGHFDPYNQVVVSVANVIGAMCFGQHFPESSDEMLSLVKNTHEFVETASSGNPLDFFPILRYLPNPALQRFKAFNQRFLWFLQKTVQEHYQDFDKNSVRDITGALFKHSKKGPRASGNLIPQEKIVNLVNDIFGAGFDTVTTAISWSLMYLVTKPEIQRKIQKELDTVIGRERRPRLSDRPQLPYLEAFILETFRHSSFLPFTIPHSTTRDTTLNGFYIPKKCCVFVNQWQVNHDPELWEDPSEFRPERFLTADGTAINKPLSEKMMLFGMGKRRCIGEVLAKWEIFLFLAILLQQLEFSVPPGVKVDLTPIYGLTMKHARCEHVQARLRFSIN", "test": "Metabolism by Recombinant CYP Enzymes", "format": "in vitro ADME", "conditions": "1 μM, recombinant CYP1A2, NADPH", "protocol": "(§1) Microsomes that contained recombinant CYP enzymes (CYP1A2, 2B6, 2C8, 2C9, 2C19, 2D6, 2E1 and 3A4) were used to determine which CYP catalyzes the oxidation of Compound 1. Accordingly, Compound 1 (1 μM) was incubated with individual recombinant CYPs in the presence of the cofactor NADPH. The percent parent drug remaining at the end of the incubation period was determined by LC-MS/MS and compared to that present at the beginning."}, "CYP2B6": {"biological_target": "CYP2B6 (Homo sapiens, UniProt P20813)", "sequence (P20813 whole entry)": "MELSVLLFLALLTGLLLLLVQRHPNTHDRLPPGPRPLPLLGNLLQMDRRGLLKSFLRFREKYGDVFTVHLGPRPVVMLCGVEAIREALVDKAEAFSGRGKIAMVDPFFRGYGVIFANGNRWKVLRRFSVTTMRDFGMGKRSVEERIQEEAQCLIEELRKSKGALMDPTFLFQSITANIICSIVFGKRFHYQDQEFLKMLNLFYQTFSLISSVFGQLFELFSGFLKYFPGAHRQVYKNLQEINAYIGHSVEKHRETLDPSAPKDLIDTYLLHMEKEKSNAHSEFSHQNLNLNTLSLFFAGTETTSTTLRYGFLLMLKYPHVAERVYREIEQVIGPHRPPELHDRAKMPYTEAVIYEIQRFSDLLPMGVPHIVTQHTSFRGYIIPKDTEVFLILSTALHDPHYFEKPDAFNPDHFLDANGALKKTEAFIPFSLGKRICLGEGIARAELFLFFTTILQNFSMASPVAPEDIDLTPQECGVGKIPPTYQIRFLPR", "test": "Metabolism by Recombinant CYP Enzymes", "format": "in vitro ADME", "conditions": "1 μM, recombinant CYP2B6, NADPH", "protocol": "as §1"}, "CYP2C19": {"biological_target": "CYP2C19 (Homo sapiens, UniProt P33261)", "sequence (P33261 whole entry)": "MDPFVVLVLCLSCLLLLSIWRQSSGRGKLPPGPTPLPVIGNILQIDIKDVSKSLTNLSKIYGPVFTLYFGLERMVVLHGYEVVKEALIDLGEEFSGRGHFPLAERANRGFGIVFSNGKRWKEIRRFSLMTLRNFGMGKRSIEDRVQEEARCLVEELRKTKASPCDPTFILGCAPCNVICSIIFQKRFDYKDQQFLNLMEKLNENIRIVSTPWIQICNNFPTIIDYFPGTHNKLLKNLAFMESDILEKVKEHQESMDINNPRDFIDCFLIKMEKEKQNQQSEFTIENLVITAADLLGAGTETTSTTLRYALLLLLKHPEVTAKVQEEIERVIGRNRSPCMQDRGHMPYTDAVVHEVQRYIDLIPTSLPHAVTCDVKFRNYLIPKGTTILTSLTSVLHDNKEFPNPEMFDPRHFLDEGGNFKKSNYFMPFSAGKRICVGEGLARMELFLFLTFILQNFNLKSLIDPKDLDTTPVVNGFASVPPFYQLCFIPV", "test": "Metabolism by Recombinant CYP Enzymes", "format": "in vitro ADME", "conditions": "1 μM, recombinant CYP2C19, NADPH", "protocol": "as §1"}, "CYP2C8": {"biological_target": "CYP2C8 (Homo sapiens, UniProt P10632)", "sequence (P10632 whole entry)": "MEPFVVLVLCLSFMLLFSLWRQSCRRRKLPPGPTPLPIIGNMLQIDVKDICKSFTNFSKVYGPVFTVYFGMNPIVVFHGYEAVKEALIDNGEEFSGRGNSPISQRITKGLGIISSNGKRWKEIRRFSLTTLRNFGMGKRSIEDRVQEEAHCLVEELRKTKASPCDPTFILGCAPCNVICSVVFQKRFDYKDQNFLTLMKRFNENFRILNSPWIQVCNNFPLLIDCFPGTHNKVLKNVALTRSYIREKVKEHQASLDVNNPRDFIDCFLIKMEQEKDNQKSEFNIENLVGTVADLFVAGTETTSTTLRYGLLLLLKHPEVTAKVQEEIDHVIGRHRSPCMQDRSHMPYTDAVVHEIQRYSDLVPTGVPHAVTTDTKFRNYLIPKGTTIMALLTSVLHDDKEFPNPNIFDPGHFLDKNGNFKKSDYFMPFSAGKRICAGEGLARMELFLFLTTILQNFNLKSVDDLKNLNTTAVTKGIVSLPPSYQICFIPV", "test": "Metabolism by Recombinant CYP Enzymes", "format": "in vitro ADME", "conditions": "1 μM, recombinant CYP2C8, NADPH", "protocol": "as §1"}, "CYP2C9": {"biological_target": "CYP2C9 (Homo sapiens, UniProt P11712)", "sequence (P11712 whole entry)": "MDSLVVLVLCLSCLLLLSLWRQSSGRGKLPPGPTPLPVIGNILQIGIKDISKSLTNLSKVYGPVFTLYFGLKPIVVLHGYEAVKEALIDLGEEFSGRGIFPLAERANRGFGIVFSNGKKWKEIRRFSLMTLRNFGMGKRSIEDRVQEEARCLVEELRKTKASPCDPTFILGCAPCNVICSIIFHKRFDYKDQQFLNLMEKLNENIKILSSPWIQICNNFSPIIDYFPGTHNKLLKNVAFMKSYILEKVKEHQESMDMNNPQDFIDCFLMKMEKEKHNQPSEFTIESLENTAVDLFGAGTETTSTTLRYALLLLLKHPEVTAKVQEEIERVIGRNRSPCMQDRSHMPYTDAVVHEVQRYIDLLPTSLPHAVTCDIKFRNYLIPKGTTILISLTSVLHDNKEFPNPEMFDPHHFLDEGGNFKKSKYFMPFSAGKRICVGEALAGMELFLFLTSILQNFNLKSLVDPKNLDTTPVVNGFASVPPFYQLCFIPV", "test": "Metabolism by Recombinant CYP Enzymes", "format": "in vitro ADME", "conditions": "1 μM, recombinant CYP2C9, NADPH", "protocol": "as §1"}, "CYP2D6": {"biological_target": "CYP2D6 (Homo sapiens, UniProt P10635)", "sequence (P10635 whole entry)": "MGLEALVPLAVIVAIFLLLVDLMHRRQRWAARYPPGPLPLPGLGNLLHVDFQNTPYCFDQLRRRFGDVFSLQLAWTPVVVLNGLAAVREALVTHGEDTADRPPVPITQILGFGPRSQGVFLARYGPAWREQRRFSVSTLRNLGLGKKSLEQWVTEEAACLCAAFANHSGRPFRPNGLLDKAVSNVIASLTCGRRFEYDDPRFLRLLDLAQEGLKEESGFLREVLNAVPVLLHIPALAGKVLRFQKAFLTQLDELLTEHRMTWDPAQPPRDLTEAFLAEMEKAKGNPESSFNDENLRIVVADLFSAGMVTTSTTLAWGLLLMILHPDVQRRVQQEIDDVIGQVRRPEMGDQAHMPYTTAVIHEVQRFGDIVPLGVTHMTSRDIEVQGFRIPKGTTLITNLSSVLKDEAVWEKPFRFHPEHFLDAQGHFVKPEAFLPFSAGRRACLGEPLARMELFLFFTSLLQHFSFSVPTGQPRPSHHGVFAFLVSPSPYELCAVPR", "test": "Metabolism by Recombinant CYP Enzymes", "format": "in vitro ADME", "conditions": "1 μM, recombinant CYP2D6, NADPH", "protocol": "as §1"}, "CYP2E1": {"biological_target": "CYP2E1 (Homo sapiens, UniProt P05181)", "sequence (P05181 whole entry)": "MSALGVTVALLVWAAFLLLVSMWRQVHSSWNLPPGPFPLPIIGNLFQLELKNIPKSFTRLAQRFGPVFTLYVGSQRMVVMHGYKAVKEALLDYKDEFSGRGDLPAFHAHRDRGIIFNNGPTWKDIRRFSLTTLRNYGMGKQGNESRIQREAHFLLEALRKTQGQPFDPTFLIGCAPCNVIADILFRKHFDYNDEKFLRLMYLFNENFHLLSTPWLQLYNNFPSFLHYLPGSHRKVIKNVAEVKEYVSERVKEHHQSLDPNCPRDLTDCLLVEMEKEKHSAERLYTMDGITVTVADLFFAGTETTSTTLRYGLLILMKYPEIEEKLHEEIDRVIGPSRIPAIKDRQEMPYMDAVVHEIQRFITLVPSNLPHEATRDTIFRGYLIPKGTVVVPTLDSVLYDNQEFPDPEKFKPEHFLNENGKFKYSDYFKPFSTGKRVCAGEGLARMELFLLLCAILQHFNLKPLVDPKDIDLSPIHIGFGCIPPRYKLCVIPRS", "test": "Metabolism by Recombinant CYP Enzymes", "format": "in vitro ADME", "conditions": "1 μM, recombinant CYP2E1, NADPH", "protocol": "as §1"}, "CYP3A4": {"biological_target": "CYP3A4 (Homo sapiens, UniProt P08684)", "sequence (P08684 whole entry)": "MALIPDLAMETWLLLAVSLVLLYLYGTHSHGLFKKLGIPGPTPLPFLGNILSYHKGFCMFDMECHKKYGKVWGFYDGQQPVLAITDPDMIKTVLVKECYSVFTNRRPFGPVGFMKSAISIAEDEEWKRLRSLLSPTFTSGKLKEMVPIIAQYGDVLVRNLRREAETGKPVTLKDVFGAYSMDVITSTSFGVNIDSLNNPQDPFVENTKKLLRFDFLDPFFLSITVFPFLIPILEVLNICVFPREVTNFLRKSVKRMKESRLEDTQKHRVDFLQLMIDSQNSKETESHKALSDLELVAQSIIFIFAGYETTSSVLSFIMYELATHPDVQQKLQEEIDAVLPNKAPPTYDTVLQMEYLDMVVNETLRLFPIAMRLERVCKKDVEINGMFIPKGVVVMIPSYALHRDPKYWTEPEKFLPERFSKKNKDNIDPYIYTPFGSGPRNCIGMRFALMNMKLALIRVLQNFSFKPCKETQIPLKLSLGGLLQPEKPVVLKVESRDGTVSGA", "test": "Metabolism by Recombinant CYP Enzymes", "format": "in vitro ADME", "conditions": "1 μM", "protocol": "as §1"}, "CYP1A2 [2]": {"tested_on": "CYP1A2", "test": "CYP1A2 Induction in Human Hepatocytes", "format": "in vitro ADME", "protocol": "CYP activity was determined by monitoring metabolite formation of specific CYP probe substrates (phenacetin for CYP1A2 and testosterone for CYP3A4) using LC-MS/MS. CYP messenger ribonucleic acid (mRNA) was analyzed by RT-PCR to confirm CYP induction potential."}}, "note": "Like-named read-outs stand apart in the source and are kept apart here. Marks after values point to notes of the source that are not given here.", "data": [{"smiles": "Cc1cc(-c2cncc([C@@H](O)C(F)(F)F)c2)nc2c1C(=O)N(c1cnn(CC(F)F)c1)C2(C)C", "note": "[Compound 1, (R)-6-(1-(2,2-difluoroethyl)-1H-pyrazol-4-yl)-4,7,7-trimethyl-2-(5-(2,2,2-trifluoro-1-hydroxyethyl)pyridin-3-yl)-6,7-dihydro-5H-pyrrolo[3,4-b]pyridin-5-one]", "values": [{"measurement": "IC50", "setting": "MCF7 cells; MCF7, 96 h, MCF7 Proliferation, 96 hours, PI3K-alpha dependent, read-out: IC50 Avg +/− SD", "result": "> 17", "unit": "µM"}, {"measurement": "IC50", "setting": "MCF7 cells; MCF7, MCF7 Proliferation, footnote **, read-out: Individual assay data (IC50)", "result": 15.7, "unit": "µM"}, {"measurement": "selectivity over PI3K-alpha", "setting": "MCF7 cells; MCF7 proliferation", "result": "> 67", "unit": "fold"}, {"measurement": "% Parent Remaining @ 30 min", "setting": "CYP1A2 [1]", "result": 105, "unit": "%"}, {"measurement": "% Parent Remaining @ 30 min", "setting": "CYP2B6", "result": 107, "unit": "%"}, {"measurement": "% Parent Remaining @ 30 min", "setting": "CYP2C19", "result": 118, "unit": "%"}, {"measurement": "% Parent Remaining @ 30 min", "setting": "CYP2C8", "result": 105, "unit": "%"}, {"measurement": "% Parent Remaining @ 30 min", "setting": "CYP2C9", "result": 108, "unit": "%"}, {"measurement": "% Parent Remaining @ 30 min", "setting": "CYP2D6", "result": 100, "unit": "%"}, {"measurement": "% Parent Remaining @ 30 min", "setting": "CYP2E1", "result": 105, "unit": "%"}, {"measurement": "Metabolism by recombinant CYPs", "setting": "CYP3A4; in words", "result": "detected only in the incubation with CYP3A4"}, {"measurement": "% Parent Remaining @ 30 min", "setting": "CYP3A4; recombinant CYP3A4, NADPH", "result": 92, "unit": "%"}, {"measurement": "CYP1A2 mRNA message", "setting": "CYP1A2 [2]; 0.5 μM, lot 8123", "result": "0.6 (0.6)* fold change"}, {"measurement": "Phenacetin O-Dealkylation", "setting": "CYP1A2 [2]; 0.5 μM, lot 8123", "result": "0.6 (0.6)* fold change"}, {"measurement": "CYP1A2 mRNA message", "setting": "CYP1A2 [2]; 0.5 μM, lot LMP", "result": 0.6, "unit": "fold change"}, {"measurement": "Phenacetin O-Dealkylation", "setting": "CYP1A2 [2]; 0.5 μM, lot LMP", "result": 0.7, "unit": "fold change"}, {"measurement": "CYP1A2 mRNA message", "setting": "CYP1A2 [2]; 0.5 μM, lot YOW", "result": 0.5, "unit": "fold change"}, {"measurement": "Phenacetin O-Dealkylation", "setting": "CYP1A2 [2]; 0.5 μM, lot YOW", "result": 1.1, "unit": "fold change"}, {"measurement": "CYP1A2 mRNA message", "setting": "CYP1A2 [2]; 1.0 μM, lot 8123", "result": "0.5 (0.5) fold change"}, {"measurement": "Phenacetin O-Dealkylation", "setting": "CYP1A2 [2]; 1.0 μM, lot 8123", "result": "0.5 (0.5) fold change"}, {"measurement": "CYP1A2 mRNA message", "setting": "CYP1A2 [2]; 1.0 μM, lot LMP", "result": 0.6, "unit": "fold change"}, {"measurement": "Phenacetin O-Dealkylation", "setting": "CYP1A2 [2]; 1.0 μM, lot LMP", "result": 0.8, "unit": "fold change"}, {"measurement": "CYP1A2 mRNA message", "setting": "CYP1A2 [2]; 1.0 μM, lot YOW", "result": 0.4, "unit": "fold change"}, {"measurement": "Phenacetin O-Dealkylation", "setting": "CYP1A2 [2]; 1.0 μM, lot YOW", "result": 1.1, "unit": "fold change"}, {"measurement": "CYP1A2 mRNA message", "setting": "CYP1A2 [2]; 5.0 μM, lot 8123", "result": 0.5, "unit": "fold change"}, {"measurement": "Phenacetin O-Dealkylation", "setting": "CYP1A2 [2]; 5.0 μM, lot 8123", "result": 0.8, "unit": "fold change"}, {"measurement": "CYP1A2 mRNA message", "setting": "CYP1A2 [2]; 5.0 μM, lot LMP", "result": 0.7, "unit": "fold change"}, {"measurement": "Phenacetin O-Dealkylation", "setting": "CYP1A2 [2]; 5.0 μM, lot LMP", "result": 0.9, "unit": "fold change"}, {"measurement": "CYP1A2 mRNA message", "setting": "CYP1A2 [2]; 5.0 μM, lot YOW", "result": 0.6, "unit": "fold change"}, {"measurement": "Phenacetin O-Dealkylation", "setting": "CYP1A2 [2]; 5.0 μM, lot YOW", "result": 1.1, "unit": "fold change"}, {"measurement": "CYP1A2 mRNA message", "setting": "CYP1A2 [2]; 10.0 μM, lot 8123", "result": 1.2, "unit": "fold change"}, {"measurement": "Phenacetin O-Dealkylation", "setting": "CYP1A2 [2]; 10.0 μM, lot 8123", "result": 0.7, "unit": "fold change"}, {"measurement": "CYP1A2 mRNA message", "setting": "CYP1A2 [2]; 10.0 μM, lot LMP", "result": 0.8, "unit": "fold change"}, {"measurement": "Phenacetin O-Dealkylation", "setting": "CYP1A2 [2]; 10.0 μM, lot LMP", "result": 1.0, "unit": "fold change"}, {"measurement": "CYP1A2 mRNA message", "setting": "CYP1A2 [2]; 10.0 μM, lot YOW", "result": 1.3, "unit": "fold change"}, {"measurement": "Phenacetin O-Dealkylation", "setting": "CYP1A2 [2]; 10.0 μM, lot YOW", "result": 1.2, "unit": "fold change"}, {"measurement": "CYP1A2 mRNA message", "setting": "CYP1A2 [2]; 20.0 μM, lot 8123", "result": 2.6, "unit": "fold change"}, {"measurement": "Phenacetin O-Dealkylation", "setting": "CYP1A2 [2]; 20.0 μM, lot 8123", "result": 1.2, "unit": "fold change"}, {"measurement": "CYP1A2 mRNA message", "setting": "CYP1A2 [2]; 20.0 μM, lot LMP", "result": 0.7, "unit": "fold change"}, {"measurement": "Phenacetin O-Dealkylation", "setting": "CYP1A2 [2]; 20.0 μM, lot LMP", "result": 1.1, "unit": "fold change"}, {"measurement": "CYP1A2 mRNA message", "setting": "CYP1A2 [2]; 20.0 μM, lot YOW", "result": 0.8, "unit": "fold change"}, {"measurement": "Phenacetin O-Dealkylation", "setting": "CYP1A2 [2]; 20.0 μM, lot YOW", "result": 1.3, "unit": "fold change"}, {"measurement": "Phenacetin O-Dealkylation", "setting": "CYP1A2 [2]; 30.0 μM, lot 8123", "result": "1.3 (NR^2) fold change"}, {"measurement": "CYP1A2 mRNA message", "setting": "CYP1A2 [2]; 30.0 μM, lot LMP", "result": 1.4, "unit": "fold change"}, {"measurement": "Phenacetin O-Dealkylation", "setting": "CYP1A2 [2]; 30.0 μM, lot LMP", "result": 1.1, "unit": "fold change"}, {"measurement": "Phenacetin O-Dealkylation", "setting": "CYP1A2 [2]; 30.0 μM, lot YOW", "result": "1.5 (NR^2) fold change"}, {"measurement": "change in CYP1A2 activity and mRNA levels, % of the positive control", "setting": "CYP1A2 [2]; all three hepatocyte lots, 48 hour exposure", "result": "less than 20%"}]}]}
